# Tested on: AKT phosphorylation (Ser473, Thr308)
# Assay: western immunoblot of AKT signaling, MOLM14 or K562 cells
# Assay type: cell-based, human
# Source text: For comparative analysis, additional lysates from cells treated with an ABL1 or FLT3 tyrosine kinase inhibitor (imatinib for K562 BCR-ABL1 cells, sunitinib for MOLM14 FLT3 ITD cells) as well as rapamycin were used.
# Rabbit anti-panAKT, panFLT3, panABL1 or anti-cleaved caspase 3 antibodies were used at a 1:500 to 1:1000 dilution. Rabbit anti-phospho-AKT antibodies detecting phosphorylated isoforms of T308-AKT, S473-AKT, S807/811-RB, S575-ULK1, T389-p70S6K, Y694-STAT5, FLT3, ABL1 or T202/Y204-ERK1/2 were used at a 1:250 to 1:1000 dilution. An anti-actin mouse monoclonal antibody was used as a loading control. All antibodies, if not otherwise indicated, were purchased from Cell Signaling Technology.
# Cell pellets were lysed with 100 to 150 μl of protein lysis buffer (50 mmol/L Tris, 150 mmol/L NaCl, 1% NP40, 0.25% deoxycholate with added inhibitors aprotinin, AEBSF, leupeptin, pepstatin, sodium orthovanadate, and sodium pyruvate, respectively phosphatase inhibitor cocktails „2“ and „1“ or „3“ (Sigma, St. Louis, MO). Protein from cell lysates (75 to 200 μg protein) was used for whole cell protein analysis after denaturing by Western immunoblot assays using a BioRad Criterion system. Nonspecific binding was blocked by incubating the blots in nonfat dry milk or BSA. Primary antibodies were incubated for one hour or over night, followed by several washes of Tris-buffered saline (TBS) containing 0.005% Tween 20. The appropriate secondary antibody was applied for 30‘, followed by several washes. Antibody-reactive proteins were detected using a LI-COR Odyssey® fluorescence optical system.
compound,measurement,value
CO[C@H]1C[C@@H]2CC[C@@H](C)[C@@](O)(O2)C(=O)C(=O)N2CCCC[C@H]2C(=O)O[C@H]([C@H](C)C[C@@H]2CC[C@@H](O)[C@H](OC)C2)CC(=O)[C@H](C)/C=C(\C)[C@@H](O)[C@@H](OC)C(=O)[C@H](C)C[C@H](C)/C=C/C=C/C=C/1C [rapamycin],phosphorylation of AKT (immunoblot),did not suppress AKT phosphorylation
